The nature of assay [1]: Binding affinity to N-terminal 6His-TEV-tagged recombinant human GPX4-U46C-C10A-C66A mutant (Met1 to Phe170 residues) expressed in Escherichia coli BL21 (DE3) cells incubated for 20 mins in presence of FITC-labeled peptide by fluorescence polarization based competitive binding assay. The format is cell-based.
The species entered for assay [2] is Homo sapiens. The assay can be described thus: Inhibition of N-terminal 6His-TEV-tagged recombinant human GPX4-U46C-C10A-C66A mutant (Met1 to Phe170 residues) expressed in Escherichia coli BL21 (DE3) cells at 1 to 100 uM incubated for 20 mins by fluorescence polarization based high-throughput screening assay. The following applies: dose 1-100 µM. A general note: In fluorescence polarisation assays a small probe gives low polarisation when free and higher when bound to something large.

Assay [3] is described as follows: Inhibition of N-terminal 6His-TEV-tagged recombinant human GPX4-U46C-C10A-C66A mutant (Met1 to Phe170 residues) expressed in Escherichia coli BL21 (DE3) cells incubated for 20 mins by fluorescence polarization based high-throughput screening assay.
Assay [4] is filed under the species Homo sapiens. Put plainly: Inhibition of N-terminal 6His-TEV-tagged recombinant human GPX4-U46C-C10A-C66A mutant (Met1 to Phe170 residues) expressed in Escherichia coli BL21 (DE3) cells using tert-butyl peroxide as substrate assessed as Km at 50 uM preincubated for 10 mins in presence of NADPH and GSH followed by substrate addition and measured after 30 mins by absorbance based plate reader analysis (reference value: 36.04 +/- 7.80 microM). The following applies: time 40.0 min.

For assay [5], the species on record is Homo sapiens. Put plainly: Inhibition of N-terminal 6His-TEV-tagged recombinant human GPX4-U46C-C10A-C66A mutant (Met1 to Phe170 residues) expressed in Escherichia coli BL21 (DE3) cells using tert-butyl peroxide as substrate assessed as Km at 40 uM preincubated for 10 mins in presence of NADPH and GSH followed by substrate addition and measured after 30 mins by absorbance based plate reader analysis (reference value: 36.04 +/- 7.80 microM). Conditions: time 40.0 min.

The species entered for assay [6] is Homo sapiens. The assay can be described thus: Inhibition of N-terminal 6His-TEV-tagged recombinant human GPX4-U46C-C10A-C66A mutant (Met1 to Phe170 residues) expressed in Escherichia coli BL21 (DE3) cells using tert-butyl peroxide as substrate assessed as Km at 30 uM preincubated for 10 mins in presence of NADPH and GSH followed by substrate addition and measured after 30 mins by absorbance based plate reader analysis (reference value: 36.04 +/- 7.80 microM). The following applies: time 40.0 min.

The species named for assay [7] is Homo sapiens. The assay can be described thus: Inhibition of N-terminal 6His-TEV-tagged recombinant human GPX4-U46C-C10A-C66A mutant (Met1 to Phe170 residues) expressed in Escherichia coli BL21 (DE3) cells using tert-butyl peroxide as substrate assessed as Vmax at 10 uM preincubated for 10 mins in presence of NADPH and GSH followed by substrate …. Conditions: time 40.0 min.

The species named for assay [8] is Homo sapiens. Put plainly: Non-covalent binding to N-terminal 6His-TEV-tagged recombinant human GPX4-U46C-C10A-C66A mutant (Met1 to Phe170 residues) expressed in Escherichia coli BL21 (DE3) cells by mass spectrum analysis.
For assay [9], the species on record is Homo sapiens. Put plainly: Inhibition of N-terminal 6His-TEV-tagged recombinant human GPX4-U46C-C10A-C66A mutant (Met1 to Phe170 residues) expressed in Escherichia coli BL21 (DE3) cells using tert-butyl peroxide as substrate assessed as Vmax at 20 uM preincubated for 10 mins in presence of NADPH and GSH followed by substrate addition and measured after 30 mins by absorbance based plate reader analysis (reference value: 0.556 +/- 0.058 nM/min). The following applies: time 40.0 min.

For assay [10], the species on record is Homo sapiens. Put plainly: Inhibition of N-terminal 6His-TEV-tagged recombinant human GPX4-U46C-C10A-C66A mutant (Met1 to Phe170 residues) expressed in Escherichia coli BL21 (DE3) cells using tert-butyl peroxide as substrate assessed as Vmax at 40 uM preincubated for 10 mins in presence of NADPH and GSH followed by substrate addition and measured after 30 mins by absorbance based plate reader analysis (reference value: 0.556 +/- 0.058 nM/min). Conditions: time 40.0 min.

Assay [11] is described as follows: Binding affinity to N-terminal 6His-TEV-tagged recombinant human GPX4-U46C-C10A-C66A mutant (Met1 to Phe170 residues) expressed in Escherichia coli BL21 (DE3) cells assessed as dissociation constant incubated for 10 mins by microscale thermophoresis assay.
The species entered for assay [12] is Homo sapiens. Put plainly: Reversible inhibition of N-terminal 6His-TEV-tagged recombinant human GPX4-U46C-C10A-C66A mutant (Met1 to Phe170 residues) expressed in Escherichia coli BL21 (DE3) cells by mass spectrum analysis.
For assay [13], the species on record is Homo sapiens. Put plainly: Inhibition of N-terminal 6His-TEV-tagged recombinant human GPX4-U46C-C10A-C66A mutant (Met1 to Phe170 residues) expressed in Escherichia coli BL21 (DE3) cells using tert-butyl peroxide as substrate assessed as Vmax at 30 uM preincubated for 10 mins in presence of NADPH and GSH followed by substrate addition and measured after 30 mins by absorbance based plate reader analysis (reference value: 0.556 +/- 0.058 nM/min). Conditions: time 40.0 min.

The species named for assay [14] is Homo sapiens. The assay can be described thus: Inhibition of N-terminal 6His-TEV-tagged recombinant human GPX4-U46C-C10A-C66A mutant (Met1 to Phe170 residues) expressed in Escherichia coli BL21 (DE3) cells using tert-butyl peroxide as substrate assessed as Km at 20 uM preincubated for 10 mins in presence of NADPH and GSH followed by substrate addition and measured after 30 mins by absorbance based plate reader analysis (reference value: 36.04 +/- 7.80 microM). The following applies: time 40.0 min.

The species named for assay [15] is Homo sapiens. Put plainly: Inhibition of N-terminal 6His-TEV-tagged recombinant human GPX4-U46C-C10A-C66A mutant (Met1 to Phe170 residues) expressed in Escherichia coli BL21 (DE3) cells using tert-butyl peroxide as substrate assessed as Vmax at 50 uM preincubated for 10 mins in presence of NADPH and GSH followed by substrate addition and measured after 30 mins by absorbance based plate reader analysis (reference value: 0.556 +/- 0.058 nM/min). The following applies: time 40.0 min.

Assay [16] can be described thus: Inhibition of N-terminal 6His-TEV-tagged recombinant human GPX4-U46C-C10A-C66A mutant (Met1 to Phe170 residues) expressed in Escherichia coli BL21 (DE3) cells using tert-butyl hydroperoxide as substrate preincubated for 10 mins in presence of NADPH and GSH followed by substrate addition and measured after 30 mins by absorbance based plate reader analysis.
The species entered for assay [17] is Homo sapiens. Put plainly: Inhibition of N-terminal 6His-TEV-tagged recombinant human GPX4-U46C-C10A-C66A mutant (Met1 to Phe170 residues) expressed in Escherichia coli BL21 (DE3) cells using tert-butyl peroxide as substrate assessed as Km at 10 uM preincubated for 10 mins in presence of NADPH and GSH followed by substrate …. Conditions: time 40.0 min.

By IC50 is commonly meant the concentration needed to halve the response being measured. The Km is the concentration of substrate that gives half-maximal velocity. The term Vmax denotes the rate approached at saturating substrate. In general, Kd refers to the free concentration of one partner at which half of the binding sites on the other are occupied at equilibrium, for simple one-to-one binding.

Active and inactive are the calls of the source. The rule behind the calls is not given here. A value given as a limit tells only on which side of the number the result lay.

Take `CNC(=O)CN(C)c1c(C)n(C)n(-c2ccccc2)c1=O`: in assay [1], the IC50 was more than 100 µM.

As for `Cc1c(NCC(=O)O)c(=O)n(-c2ccccc2)n1C`, in assay [1], the 50% inhibitory concentration (IC50) was more than 100 µM.

As to `CCCc1c(NCS(=O)(=O)O)c(=O)n(-c2ccccc2)n1C`, the IC50 in assay [1] is more than 100 µM.

With `O=c1oc2cc(O)ccc2s1` [TIOXOLONE], in the assay listed under Homo sapiens [2], the inhibition entry is “Active”. Also, in assay [3], the 50% inhibitory concentration (IC50) was determined as 5.18 µM.

In the case of `Cn1c(CO)c(NCS(=O)(=O)O)c(=O)n1-c1ccccc1`, the half-inhibitory concentration (IC50) in assay [1] was found to be 22.7 µM.

For the molecule `Cc1c(NCS(=O)(=O)O)c(=O)n(-c2ccccc2Br)n1C`, the IC50 in assay [1] was determined as 12.1 µM.

On to `Cc1c(NCS(=O)(=O)O)c(=O)n(-c2ccccc2)n1C(C)C`, for which the half-inhibitory concentration (IC50) in [1] is more than 100 µM.

As to `N[C@@H](CO)C(=O)NNCc1ccc(O)c(O)c1O`, the inhibition entry in the assay listed under Homo sapiens [2] was “Active”. The IC50 in assay [3] was 7.52 µM.

With `Cc1c(NCS(=O)(=O)O)c(=O)n(-c2cccc(Br)c2)n1C`, the 50% inhibitory concentration (IC50) in assay [1] was found to be 10.3 µM.

`CCc1c(NCS(=O)(=O)O)c(=O)n(-c2ccccc2)n1C`: in [1], the half-maximal inhibitory concentration (IC50) is more than 100 µM.

`Cc1c(NCS(=O)(=O)O)c(=O)n(-c2cccc(-c3ccccc3)c2)n1C`: the half-maximal inhibitory concentration (IC50) in [1] was more than 100 µM.

For `Cc1c(S(=O)(=O)O)oc2c1C(=O)C(=O)c1c-2ccc2c1CCCC2(C)C` [SODIUM TANSHINONE IIA SULFONATE], in the assay filed under Homo sapiens [2], the inhibition entry is “Active”. Further, the IC50 in assay [3] came out at 13.8 µM.

Take `Cc1c(NCS(=O)(=O)O)c(=O)n(C2CCCCC2)n1C`: the IC50 in assay [1] came out at 2.53 µM.

`Cn1c(C2CC2)c(NCS(=O)(=O)O)c(=O)n1-c1ccccc1`: the IC50 in assay [1] worked out at 4.65 µM.

Regarding `C=CC1=C(C)C(=O)N/C1=C\c1[nH]c(Cc2[nH]c(/C=C3\NC(=O)C(C)=C3C=C)c(C)c2CCC(=O)O)c(CCC(=O)O)c1C`, the inhibition entry in the assay listed under Homo sapiens [2] is “Active”. Also, the IC50 in assay [3] was 4.58 µM.

For the molecule `O=C(O)[C@H](O)Cc1ccc(O)c(O)c1`, in the assay filed under Homo sapiens [2], the inhibition entry was “Active”. The IC50 in assay [3] stood at 6.54 µM.

With `Cc1c(NCS(=O)(=O)O)c(=O)n(-c2ccccn2)n1C`, the IC50 in assay [1] worked out at 3.54 µM.

As to `CCCn1c(C)c(NCS(=O)(=O)O)c(=O)n1-c1ccccc1`, the IC50 in assay [1] amounted to 6.02 µM.

In the case of `Cc1c(NCS(=O)(=O)O)c(=O)n(-c2cccc(-c3ccc(Br)cc3)c2)n1C`, in assay [1], the IC50 was determined as 9.63 µM.

Take `Cc1c(NCS(=O)(=O)O)c(=O)n(-c2ccccc2-c2ccoc2)n1C`: the concentration for half-maximal inhibition (IC50) in assay [1] was determined as 5.74 µM.

Regarding `CC(C)c1c(NCS(=O)(=O)O)c(=O)n(-c2ccccc2)n1C`, in [1], the IC50 amounted to 4.6 µM.

For the molecule `Cc1c(NCS(=O)(=O)O)c(=O)n(-c2ccc(-c3ccccc3)cc2)n1C`, the half-inhibitory concentration (IC50) in assay [1] is more than 100 µM.

Turning to `Cc1c(NCS(=O)(=O)O)c(=O)n(-c2ccc(-c3ccoc3)cc2)n1C`, the half-inhibitory concentration (IC50) in assay [1] came to 8.51 µM.

Regarding `Cc1c(NCS(=O)(=O)O)c(=O)n(-c2cccc(-c3ccoc3)c2)n1C`, the half-maximal inhibitory concentration (IC50) in [1] was determined as 5.89 µM.

On to `Cc1c(NCS(=O)(=O)O)c(=O)n(-c2ccccc2)n1C`, for which the IC50 in assay [1] came out at 2.37 µM.

On to `Cc1c(N(C)CS(=O)(=O)O)c(=O)n(-c2ccccc2)n1C` [DIPYRONE SODIUM], for which the Michaelis-Menten constant (Km) in the assay filed under Homo sapiens [4] was found to be 11.9 µM; in the assay listed under Homo sapiens [5], 12.1 µM; in the assay listed under Homo sapiens [6], 15.7 µM; in the assay filed under Homo sapiens [14], 17.2 µM; in the assay filed under Homo sapiens [17], 23.4 µM. Further, the maximum rate (Vmax) in the assay filed under Homo sapiens [7] worked out at 0.439 nM/min; in the assay filed under Homo sapiens [9] it was 0.361 nM/min; in the assay listed under Homo sapiens [10], 0.306 nM/min; in the assay filed under Homo sapiens [13] it was 0.345 nM/min; in the assay filed under Homo sapiens [15] it was 0.289 nM/min. The result in the assay filed under Homo sapiens [8] was Active. For the same molecule, the values for the IC50 in assay [1], in assay [3] and in assay [16] were 4.75 µM, 1.4 µM and 31.1 µM, respectively. Besides, the Kd in assay [11] was found to be 5.23 µM. Moreover, the inhibition entry in the assay filed under Homo sapiens [2] is “Active”. Further, the inhibition entry in the assay filed under Homo sapiens [12] is “Dose-Dependent Effect”.

On to `Cc1c(NCS(=O)(=O)O)c(=O)n(-c2ccccc2-c2ccccc2)n1C`, for which the 50% inhibitory concentration (IC50) in assay [1] stood at 4.21 µM.

For the origin of these results see ChEMBL document CHEMBL5518177, “Discovery of GPX4 inhibitors through FP-based high-throughput screening” (Eur J Med Chem, 2024).
